Assay results as given in US10670605B2, “Cysteine reactive probes and uses thereof” (The Scripps Research Institute, priority 2015, dated 2020).

Experiments:
[1] = target: cysteines in MDA-MB-231 and Ramos cells (Homo sapiens, UniProt Q8WUM4); assay: Competitive isoTOP-ABPP in situ (fragment-treated cells); assay type: cell-based; settings: cysteine Q8WUM4_C90; fragment 200 μM, in situ, 231 (MDA-MB-231) cells
[2] = target: cysteines in MDA-MB-231 and Ramos cells (Homo sapiens, UniProt Q5T1V6); assay: as above; assay type: cell-based; settings: 200 μM, insitu, 231
Chain of cysteines in MDA-MB-231 and Ramos cells (Homo sapiens, UniProt Q5T1V6) (Q5T1V6 whole entry): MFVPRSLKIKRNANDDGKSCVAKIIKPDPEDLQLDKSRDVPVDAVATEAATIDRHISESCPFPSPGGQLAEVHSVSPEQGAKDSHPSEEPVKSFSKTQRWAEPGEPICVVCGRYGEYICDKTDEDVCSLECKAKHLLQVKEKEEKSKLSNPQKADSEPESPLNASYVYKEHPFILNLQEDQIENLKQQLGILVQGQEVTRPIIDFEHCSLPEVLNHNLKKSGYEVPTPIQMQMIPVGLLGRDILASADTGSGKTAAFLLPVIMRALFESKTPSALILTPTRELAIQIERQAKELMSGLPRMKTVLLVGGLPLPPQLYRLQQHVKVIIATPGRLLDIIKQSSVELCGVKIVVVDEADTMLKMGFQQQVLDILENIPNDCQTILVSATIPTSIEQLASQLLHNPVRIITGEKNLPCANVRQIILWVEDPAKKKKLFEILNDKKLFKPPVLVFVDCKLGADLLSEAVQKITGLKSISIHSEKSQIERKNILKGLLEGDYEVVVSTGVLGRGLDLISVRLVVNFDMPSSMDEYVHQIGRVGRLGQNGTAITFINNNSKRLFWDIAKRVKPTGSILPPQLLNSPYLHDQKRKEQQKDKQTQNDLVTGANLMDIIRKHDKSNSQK

[3] = target: cysteines in MDA-MB-231 and Ramos cells (Homo sapiens, UniProt Q13867); assay: as above; assay type: cell-based; settings: 200 μM, insitu, 231
[4] = target: cysteines in MDA-MB-231 and Ramos cells (Homo sapiens, UniProt Q8IV53); assay: as above; assay type: cell-based; settings: 200 μM, insitu, ramos
[5] = tested on: cysteines in MDA-MB-231 and Ramos cell proteomes; assay: Competitive isoTOP-ABPP in cell lysates (in vitro): proteomic reactivity / liganded cysteine rate; assay type: binding, human; settings: fragment 500 μM; % of quantified cysteines with R ≥4
Experimental: All cell lines were obtained from ATCC, were used with a low passage number and were grown at 37° C. with 5% CO2. MDA-MB-231 cells and HEK-293T cells were grown in DMEM supplemented with 10% fetal bovine serum, penicillin, streptomycin and glutamine. Jurkat, Ramos and MUM2C cells were grown in RPMI-1640 medium supplemented with 10% fetal bovine serum, penicillin and streptomycin. For in vitro labeling, cells were grown to 100% confluence for MDA-MB-231 cells or until cell density reached 1.5 million cells/mL for Ramos and Jurkat cells. […] Cell pellets were lysed by sonication and fractionated (100,000 g, 45 min) to yield soluble and membrane fractions, which were then adjusted to a final protein concentration of 1.5 mg/mL for proteomics experiments and 1 mg/mL for gel-based ABPP experiments. The soluble lysate was prepared fresh from frozen pellets directly before each experiment. Protein concentration was determined using the Bio-Rad DC™ protein assay kit.
For each sample, 100 μL of streptavidin-agarose beads slurry (Pierce) was washed in 10 mL PBS and then resuspended in 5 mL PBS. The SDS-solubilized proteins were added to the suspension of streptavidin-agarose beads and the bead mixture was rotated for 3 h at ambient temperature. After incubation, the beads were pelleted by centrifugation (1,400 g, 3 min) and were washed (2×10 mL PBS and 2×10 mL water).
The beads were transferred to eppendorf tubes with 1 mL PBS, centrifuged (1,400 g, 3 min), and resuspended in PBS containing 6 M urea (500 μL). To this was added 10 mM DTT (25 μL of a 200 mM stock in water) and the beads were incubated at 65° C. for 15 mins. 20 mM iodoacetamide (25 μL of a 400 mM stock in water) was then added and allowed to react at 37° C. for 30 mins with shaking. The bead mixture was diluted with 900 μL PBS, pelleted by centrifugation (1,400 g, 3 min), and resuspended in 200 μL PBS. To this was added 1 mM CaCl2 ([…]) and trypsin (2 μg, Promega, sequencing grade) and the digestion was allowed to proceed overnight at 37° C. with shaking. The beads were separated from the digest with Micro Bio-Spin columns (Bio-Rad) by centrifugation (1,000 g, 1 min), washed (2×1 mL PBS and 2×1 mL water) and then transferred to fresh eppendorfs with 1 mL water. The washed beads were washed once further in 140 μL TEV buffer (50 mM Tris, pH 8, 0.5 mM EDTA, 1 mM DTT) and then resuspended in 140 μL TEV buffer. 5 μL TEV protease (80 μM) was added and the reactions were rotated overnight at 29° C. The TEV digest was separated from the beads with Micro Bio-Spin columns by centrifugation (1,400 g, 3 min) and the beads were washed once with water (100 μL). The samples were then acidified to a final concentration of 5% (v/v) formic acid and stored at −80° C. prior to analysis.

[6] = target: cysteines in MDA-MB-231 and Ramos cells (Homo sapiens, UniProt Q86UV5); assay: Competitive isoTOP-ABPP in situ (fragment-treated cells); assay type: cell-based; settings: 200 μM, insitu, ramos
Chain of cysteines in MDA-MB-231 and Ramos cells (Homo sapiens, UniProt Q86UV5) (Q86UV5 whole entry, the tested form may be a part): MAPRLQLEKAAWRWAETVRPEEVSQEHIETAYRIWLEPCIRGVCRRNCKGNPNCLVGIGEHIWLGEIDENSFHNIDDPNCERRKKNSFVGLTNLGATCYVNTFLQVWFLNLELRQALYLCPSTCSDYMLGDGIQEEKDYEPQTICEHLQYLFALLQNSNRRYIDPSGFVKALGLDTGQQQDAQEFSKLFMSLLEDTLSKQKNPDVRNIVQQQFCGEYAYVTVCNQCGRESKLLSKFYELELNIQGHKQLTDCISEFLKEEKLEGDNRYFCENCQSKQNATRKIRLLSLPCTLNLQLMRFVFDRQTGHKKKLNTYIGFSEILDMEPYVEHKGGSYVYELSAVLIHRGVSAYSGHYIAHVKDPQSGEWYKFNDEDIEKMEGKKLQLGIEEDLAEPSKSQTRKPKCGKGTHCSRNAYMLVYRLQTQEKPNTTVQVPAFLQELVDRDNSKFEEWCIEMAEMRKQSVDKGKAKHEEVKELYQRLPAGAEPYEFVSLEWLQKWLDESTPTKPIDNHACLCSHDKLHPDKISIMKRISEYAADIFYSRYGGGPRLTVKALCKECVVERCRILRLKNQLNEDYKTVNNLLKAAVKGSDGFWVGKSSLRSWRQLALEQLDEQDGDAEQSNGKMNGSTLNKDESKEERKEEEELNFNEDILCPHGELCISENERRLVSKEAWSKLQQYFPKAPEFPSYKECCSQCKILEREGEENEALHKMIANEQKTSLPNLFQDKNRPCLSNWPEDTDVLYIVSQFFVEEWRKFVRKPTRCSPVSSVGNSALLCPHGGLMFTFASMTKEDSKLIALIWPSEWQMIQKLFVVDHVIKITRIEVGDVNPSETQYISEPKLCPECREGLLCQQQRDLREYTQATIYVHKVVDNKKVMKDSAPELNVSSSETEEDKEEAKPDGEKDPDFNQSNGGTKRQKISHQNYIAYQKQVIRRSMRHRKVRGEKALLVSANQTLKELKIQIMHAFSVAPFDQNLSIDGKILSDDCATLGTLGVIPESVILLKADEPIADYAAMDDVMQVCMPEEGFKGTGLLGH

[7] = target: cysteines in MDA-MB-231 and Ramos cells (Homo sapiens, UniProt Q9P0K7); assay: as above; assay type: cell-based; settings: 100 μM in situ 231
Chain of cysteines in MDA-MB-231 and Ramos cells (Homo sapiens, UniProt Q9P0K7) (Q9P0K7 whole entry): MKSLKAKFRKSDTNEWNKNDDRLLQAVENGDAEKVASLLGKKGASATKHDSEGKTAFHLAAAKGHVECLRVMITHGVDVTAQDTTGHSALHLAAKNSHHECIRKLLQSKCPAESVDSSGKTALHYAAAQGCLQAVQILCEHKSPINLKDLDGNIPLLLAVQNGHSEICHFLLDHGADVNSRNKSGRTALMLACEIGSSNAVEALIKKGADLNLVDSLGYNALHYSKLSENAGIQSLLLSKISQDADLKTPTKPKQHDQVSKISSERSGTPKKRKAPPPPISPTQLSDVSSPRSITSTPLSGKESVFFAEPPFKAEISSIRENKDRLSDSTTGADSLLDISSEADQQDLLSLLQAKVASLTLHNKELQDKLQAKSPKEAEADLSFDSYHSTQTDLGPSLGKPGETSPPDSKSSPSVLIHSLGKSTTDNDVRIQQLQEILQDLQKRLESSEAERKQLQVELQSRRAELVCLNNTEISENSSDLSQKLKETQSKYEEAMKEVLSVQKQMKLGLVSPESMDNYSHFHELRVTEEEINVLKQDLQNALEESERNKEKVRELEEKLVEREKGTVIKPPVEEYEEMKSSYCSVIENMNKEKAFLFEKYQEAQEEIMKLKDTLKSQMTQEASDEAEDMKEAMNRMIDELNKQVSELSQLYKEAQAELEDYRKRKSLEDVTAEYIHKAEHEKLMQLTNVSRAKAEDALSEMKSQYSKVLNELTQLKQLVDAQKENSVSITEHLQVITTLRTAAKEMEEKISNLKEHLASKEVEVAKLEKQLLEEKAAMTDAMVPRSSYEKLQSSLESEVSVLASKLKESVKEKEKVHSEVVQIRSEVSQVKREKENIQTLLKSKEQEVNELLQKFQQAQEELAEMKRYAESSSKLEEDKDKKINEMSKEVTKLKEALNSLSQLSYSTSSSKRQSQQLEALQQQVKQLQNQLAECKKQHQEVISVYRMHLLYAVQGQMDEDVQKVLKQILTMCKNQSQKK

[8] = target: cysteines in MDA-MB-231 and Ramos cells (Homo sapiens, UniProt Q9UHQ1); assay: as above; assay type: cell-based; settings: 200 μM, insitu, ramos
Chain of cysteines in MDA-MB-231 and Ramos cells (Homo sapiens, UniProt Q9UHQ1) (Q9UHQ1 whole entry): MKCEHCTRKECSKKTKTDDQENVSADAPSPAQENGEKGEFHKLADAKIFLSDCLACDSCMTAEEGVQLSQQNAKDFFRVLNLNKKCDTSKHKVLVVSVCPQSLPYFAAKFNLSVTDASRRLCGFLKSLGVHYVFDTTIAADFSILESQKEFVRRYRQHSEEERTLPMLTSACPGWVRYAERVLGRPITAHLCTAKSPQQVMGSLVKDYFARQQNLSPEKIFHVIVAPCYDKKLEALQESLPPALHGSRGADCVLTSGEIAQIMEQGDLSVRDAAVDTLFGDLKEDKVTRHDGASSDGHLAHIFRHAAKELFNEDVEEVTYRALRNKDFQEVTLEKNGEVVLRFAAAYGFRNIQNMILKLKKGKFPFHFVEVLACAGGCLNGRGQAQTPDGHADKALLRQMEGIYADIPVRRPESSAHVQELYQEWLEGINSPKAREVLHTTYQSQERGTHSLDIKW

[9] = target: cysteines in MDA-MB-231 and Ramos cells (Homo sapiens, UniProt P53992); assay: as above; assay type: cell-based; settings: 200 μM, insitu, 231
Chain of cysteines in MDA-MB-231 and Ramos cells (Homo sapiens, UniProt P53992) (P53992 whole entry, the tested form may be a part): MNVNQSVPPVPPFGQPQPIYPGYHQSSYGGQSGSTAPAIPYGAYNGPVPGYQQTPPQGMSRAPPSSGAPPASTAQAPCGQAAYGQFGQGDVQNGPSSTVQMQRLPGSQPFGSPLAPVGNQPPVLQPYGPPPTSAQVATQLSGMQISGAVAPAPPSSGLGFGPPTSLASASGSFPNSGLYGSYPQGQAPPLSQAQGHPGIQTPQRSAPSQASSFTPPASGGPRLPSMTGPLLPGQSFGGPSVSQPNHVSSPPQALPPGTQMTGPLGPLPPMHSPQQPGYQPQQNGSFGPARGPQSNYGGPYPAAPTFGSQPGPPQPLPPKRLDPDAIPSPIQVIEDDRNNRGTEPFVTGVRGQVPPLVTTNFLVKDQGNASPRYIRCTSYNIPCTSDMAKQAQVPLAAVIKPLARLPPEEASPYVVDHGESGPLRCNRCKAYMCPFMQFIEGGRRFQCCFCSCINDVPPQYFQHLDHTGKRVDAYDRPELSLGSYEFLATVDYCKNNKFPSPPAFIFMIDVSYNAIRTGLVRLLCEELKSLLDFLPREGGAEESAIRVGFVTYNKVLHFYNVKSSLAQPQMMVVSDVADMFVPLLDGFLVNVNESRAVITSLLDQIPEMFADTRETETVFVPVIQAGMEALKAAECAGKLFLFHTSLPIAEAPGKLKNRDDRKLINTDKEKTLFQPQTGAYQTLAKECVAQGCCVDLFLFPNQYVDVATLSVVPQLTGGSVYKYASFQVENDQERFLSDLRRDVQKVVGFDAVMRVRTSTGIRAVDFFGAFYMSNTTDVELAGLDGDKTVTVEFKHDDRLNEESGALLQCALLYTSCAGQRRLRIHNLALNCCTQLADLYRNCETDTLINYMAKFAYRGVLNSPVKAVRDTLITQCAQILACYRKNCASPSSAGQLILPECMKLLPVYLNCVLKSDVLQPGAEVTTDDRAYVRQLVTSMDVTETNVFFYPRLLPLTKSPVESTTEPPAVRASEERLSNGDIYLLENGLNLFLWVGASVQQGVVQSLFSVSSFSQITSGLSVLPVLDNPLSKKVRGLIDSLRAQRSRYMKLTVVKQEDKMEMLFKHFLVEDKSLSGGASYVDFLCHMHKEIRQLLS

[10] = target: cysteines in MDA-MB-231 and Ramos cells (Homo sapiens, UniProt Q96IV0); assay: as above; assay type: cell-based; settings: cysteine Q96IV0_C309; fragment 200 μM, in situ, ramos cells

Chain of cysteines in MDA-MB-231 and Ramos cells (Homo sapiens, UniProt Q8WUM4) (Q8WUM4 whole entry, the tested form may be a part): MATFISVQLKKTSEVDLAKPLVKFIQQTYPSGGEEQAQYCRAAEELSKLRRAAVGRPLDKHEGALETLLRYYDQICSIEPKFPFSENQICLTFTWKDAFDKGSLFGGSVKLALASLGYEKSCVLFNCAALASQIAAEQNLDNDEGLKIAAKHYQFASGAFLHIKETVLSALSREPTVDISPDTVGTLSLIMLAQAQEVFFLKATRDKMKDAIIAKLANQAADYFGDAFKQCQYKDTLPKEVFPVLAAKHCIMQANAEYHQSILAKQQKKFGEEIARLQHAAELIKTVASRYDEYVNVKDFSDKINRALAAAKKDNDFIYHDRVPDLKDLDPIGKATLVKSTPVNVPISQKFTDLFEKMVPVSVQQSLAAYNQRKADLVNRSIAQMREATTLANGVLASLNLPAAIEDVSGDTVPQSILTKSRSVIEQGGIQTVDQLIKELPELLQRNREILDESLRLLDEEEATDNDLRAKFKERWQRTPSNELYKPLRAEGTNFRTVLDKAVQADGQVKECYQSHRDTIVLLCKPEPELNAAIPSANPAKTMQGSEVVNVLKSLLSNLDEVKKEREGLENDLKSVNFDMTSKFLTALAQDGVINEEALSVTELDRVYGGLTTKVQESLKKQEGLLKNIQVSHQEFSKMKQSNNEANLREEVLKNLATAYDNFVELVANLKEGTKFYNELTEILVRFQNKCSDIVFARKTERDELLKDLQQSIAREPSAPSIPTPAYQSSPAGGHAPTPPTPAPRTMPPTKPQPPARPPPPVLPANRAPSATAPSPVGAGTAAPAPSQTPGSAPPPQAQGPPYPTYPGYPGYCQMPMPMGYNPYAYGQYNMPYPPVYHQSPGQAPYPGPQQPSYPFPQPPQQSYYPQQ

CC(C)CCOCCNC(=O)CCl [compound 27]
reactivity profile of liganded cysteine Q8WUM4_C90 with fragment electrophile (isoTOP-ABPP ratio) [1]: 0.6

O=C(CCl)N1CCN(S(=O)(=O)c2ccccc2F)CC1 [compound 10]
isoTOP-ABPP ratio, cysteine Q5T1V6_C414 [2]: 11.3
isoTOP-ABPP ratio, cysteine Q13867_C73 [3]: 4.2
isoTOP-ABPP ratio, cysteine Q8IV53_C174 [4]: 5.0

O=C(CCl)Nc1cc(C(F)(F)F)cc(C(F)(F)F)c1 [compound 3]
proteomic reactivity value (liganded cysteine rate) [5]: 15%

C=CC(=O)N(Cc1cccnc1)c1cc(C(F)(F)F)cc(C(F)(F)F)c1 [compound 31]
isoTOP-ABPP ratio, Q86UV5_C39 [6]: 1.3

Cn1cc(S(=O)(=O)N2CCOCC2)cc1C(=O)NC(=O)CCl [compound 11]
isoTOP-ABPP ratio, cysteine Q9P0K7_C973 [7]: 0.8

O=C(CCl)NCCc1c[nH]c2ccccc12 [compound 13]
isoTOP-ABPP ratio, cysteine Q9UHQ1_C99 [8]: 20.0
isoTOP-ABPP ratio, cysteine P53992_C78 [9]: 0.7

O=C(CCl)N1CCN(CC(=O)N2CCOCC2)CC1 [compound 29]
reactivity profile of liganded cysteine Q96IV0_C309 with fragment electrophile (isoTOP-ABPP ratio) [10]: 3.0
